According to PubChem BioAssay AID330 (DTP/NCI, 2004):
Values joined by “and” are separate entries in the source; they are usually repeats but may differ in a detail not shown here. Equal entries are not always repeated. Inconclusive results and toxic doses are left out. Peptide text beside a SMILES is read from it.

System: P388 leukemia ip, CD2F1 mice, survival T/C
Test: NCI In Vivo Anticancer Drug Screen. Data for tumor model P388 Leukemia (intraperitoneal) in CD2F1 (CDF1) mice
Details: endpoint: median survival time, higher = longer survival
How it was run: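 Mice carrying the transplanted tumor received test compound or vehicle. Survival was recorded in each group, and the value is the treated-group measurement divided by that of the vehicle-treated control group.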

[1] = dose: 100.0 mg/kg/injection, schedule: Q01DX001 (ip), vehicle: Klucel (hydroxypropylcellulose) (HPC)
[2] = dose: 200.0 mg/kg/injection, schedule: Q01DX001 (ip), vehicle: Klucel (hydroxypropylcellulose) (HPC)
[3] = dose: 60.0 mg/kg/injection, schedule: Q01DX005 (ip), vehicle: saline with Tween-80
[4] = dose: 120.0 mg/kg/injection, schedule: Q01DX005 (ip), vehicle: saline with Tween-80
[5] = dose: 240.0 mg/kg/injection, schedule: Q01DX005 (ip), vehicle: saline with Tween-80
[6] = dose: 50.0 mg/kg/injection, schedule: Q01DX005 (ip), vehicle: saline with Tween-80
[7] = dose: 100.0 mg/kg/injection, schedule: Q01DX005 (ip), vehicle: saline with Tween-80
[8] = dose: 50.0 mg/kg/injection, schedule: Q01DX005 (ip), vehicle: Klucel (hydroxypropylcellulose) (HPC)
[9] = dose: 100.0 mg/kg/injection, schedule: Q01DX005 (ip), vehicle: Klucel (hydroxypropylcellulose) (HPC)
[10] = dose: 200.0 mg/kg/injection, schedule: Q01DX005 (ip), vehicle: Klucel (hydroxypropylcellulose) (HPC)
[11] = dose: 12.5 mg/kg/injection, schedule: Q01DX009 (ip), vehicle: saline with Tween-80
[12] = dose: 25.0 mg/kg/injection, schedule: Q01DX009 (ip), vehicle: saline with Tween-80
[13] = dose: 50.0 mg/kg/injection, schedule: Q01DX009 (ip), vehicle: saline with Tween-80
[14] = dose: 15.0 mg/kg/injection, schedule: Q01DX005 (ip), vehicle: saline with Tween-80
[15] = dose: 30.0 mg/kg/injection, schedule: Q01DX005 (ip), vehicle: saline with Tween-80
[16] = dose: 200.0 mg/kg/injection, schedule: Q01DX005 (ip), vehicle: saline with Tween-80
[17] = dose: 100.0 mg/kg/injection, schedule: Q04DX003 (ip), vehicle: saline
[18] = dose: 200.0 mg/kg/injection, schedule: Q04DX003 (ip), vehicle: saline
[19] = dose: 400.0 mg/kg/injection, schedule: Q04DX003 (ip), vehicle: saline

For `CCC(=O)NNc1cccc(Cl)n1`, the T/C (dose: 50.0 mg/kg/injection, schedule: Q01DX001 (ip), vehicle: Klucel (hydroxypropylcellulose) (HPC)) was 98 % of control, the T/C [1] was 94 % of control and the T/C [2] was 108 % of control.

In the case of `CCCCCCCCCCCCCCCCc1c(C)nc(N(C)C)oc1=O`, the T/C [3] was 103 % of control, the T/C [4] was 97 % of control and the T/C [5] was 98 % of control and 100 % of control.

`COc1ccc(/C=N/Nc2nnc3c4ccccc4n(C)c3n2)cc1` was tested, and the T/C (dose: 100.0 mg/kg/injection, schedule: Q01DX001 (ip), vehicle: saline with Tween-80) was 89 % of control, the T/C (dose: 200.0 mg/kg/injection, schedule: Q01DX001 (ip), vehicle: saline with Tween-80) was 91 % of control and the T/C (dose: 400.0 mg/kg/injection, schedule: Q01DX001 (ip), vehicle: saline with Tween-80) was 107 % of control.

In the case of `C[n+]1c(-c2ccc(/C=N/NC(=O)c3ccc(C(=O)N/N=C/c4ccc(-c5cn6ccccc6[n+]5C)cc4)c(O)c3O)cc2)cn2ccccc21`, the T/C [6] was 107 % of control and the T/C [7] was 96 % of control.

In the case of `NC(=O)C(CC(C(=O)O)c1ccccc1)c1ccccc1` (stereo not drawn), the T/C [1] was 99 % of control, the T/C [2] was 96 % of control and the T/C (dose: 400.0 mg/kg/injection, schedule: Q01DX001 (ip), vehicle: Klucel (hydroxypropylcellulose) (HPC)) was 97 % of control.

For `Cc1nc2ccccc2c(=O)n1/N=C1/C(=O)Nc2ccc(Br)cc21`, the T/C (dose: 12.5 mg/kg/injection, schedule: Q01DX005 (ip), vehicle: Klucel (hydroxypropylcellulose) (HPC)) was 96 % of control, the T/C (dose: 25.0 mg/kg/injection, schedule: Q01DX005 (ip), vehicle: Klucel (hydroxypropylcellulose) (HPC)) was 96 % of control and the T/C [8] was 88 % of control and 90 % of control. The T/C [9] was 91 % of control and the T/C [10] was 104 % of control.

In the case of `NCC12CC3CC(CC(C3)C1)C2`, the T/C [11] was 103 % of control, the T/C [12] was 102 % of control and the T/C [13] was 100 % of control and 102 % of control.

`O=C(CCl)NNC1=Nc2ccc(Cl)cc2SC1` was tested, and the T/C [3] was 101 % of control, the T/C [4] was 104 % of control and the T/C [5] was 93 % of control.

`COc1ccc(CCN2C(=O)C(=O)N(c3ccc([N+](=O)[O-])cc3)C2=O)cc1OC` was tested, and the T/C (dose: 50.0 mg/kg/injection, schedule: Q01DX009 (ip), vehicle: saline) was 91 % of control, the T/C (dose: 100.0 mg/kg/injection, schedule: Q01DX009 (ip), vehicle: saline) was 94 % of control and the T/C (dose: 200.0 mg/kg/injection, schedule: Q01DX009 (ip), vehicle: saline) was 94 % of control.

With `CCOC(=O)c1cc(/C=C/c2cccc(Cl)c2)on1` the T/C [14] was 93 % of control, the T/C [15] was 100 % of control and 90 % of control and the T/C [3] was 90 % of control. The T/C [4] was 93 % of control and the T/C [5] was 95 % of control.

With `O=C1C(CCl)=C(c2ccccc2)S(=O)(=O)c2ccccc21` the T/C [6] was 109 % of control, the T/C [7] was 114 % of control and the T/C [16] was 114 % of control.

`O=[N+]([O-])c1ccc(N=Nc2ccc(O)cc2O)cc1` was tested, and the T/C [17] was 100 % of control, the T/C [18] was 114 % of control and the T/C [19] was 115 % of control.

`N=C(N)c1ccc(-c2ccc(-c3ccc(C(=N)N)cc3)s2)cc1` was tested, and the T/C (dose: 12.5 mg/kg/injection, schedule: Q04DX003 (ip), vehicle: suspension in saline) was 106 % of control, the T/C (dose: 25.0 mg/kg/injection, schedule: Q04DX003 (ip), vehicle: suspension in saline) was 120 % of control and the T/C (dose: 100.0 mg/kg/injection, schedule: Q04DX003 (ip), vehicle: suspension in saline) was 169 % of control.

In the case of `CN1OC(=O)OC(C)(c2ccccc2)C1=O` (stereo not drawn), the T/C [6] was 98 % of control, the T/C [7] was 97 % of control and the T/C [16] was 97 % of control.

For `CSCCC(N)C(=O)NC(CC(N)=O)C(=O)O` (stereo not drawn) (H-Met-Asn-OH; configuration not given here), the T/C (dose: 50.0 mg/kg/injection, schedule: Q01DX005 (ip), vehicle: saline) was 98 % of control, the T/C (dose: 100.0 mg/kg/injection, schedule: Q01DX005 (ip), vehicle: saline) was 101 % of control and the T/C (dose: 200.0 mg/kg/injection, schedule: Q01DX005 (ip), vehicle: saline) was 99 % of control.

With `N#CCCSC(=S)C1CCCC1=N` (stereo not drawn) the T/C [11] was 114 % of control and 123 % of control, the T/C [12] was 110 % of control and 116 % of control and the T/C [13] was 104 % of control and 109 % of control. For the same molecule, the T/C (dose: 100.0 mg/kg/injection, schedule: Q01DX009 (ip), vehicle: saline with Tween-80) was 102 % of control and 116 % of control.

In the case of `Cc1ccc([N+](=O)[O-])cc1NC(=O)Oc1ccccc1`, the T/C (dose: 100.0 mg/kg/injection, schedule: Q01DX009 (ip), vehicle: other) was 90 % of control, the T/C (dose: 200.0 mg/kg/injection, schedule: Q01DX009 (ip), vehicle: other) was 110 % of control and the T/C (dose: 400.0 mg/kg/injection, schedule: Q01DX009 (ip), vehicle: other) was 100 % of control.

For `O=C(C(Cl)Cl)N1CCN(C(=O)C(Cl)Cl)CC1`, the T/C [8] was 102 % of control, the T/C [9] was 110 % of control and the T/C [10] was 105 % of control.

With `COC(=O)[C@@]12OC[C@]34[C@H]([C@@H](O)[C@@H]1O)[C@@]1(C)CC(=O)C(O)=C(C)[C@@H]1C[C@H]3OC(=O)[C@H](OC(=O)/C=C(/C)C(C)(C)O)[C@@H]24` the T/C (dose: 0.25 mg/kg/injection, schedule: Q01DX009 (ip), vehicle: saline + alcohol) was 113 % of control and 115 % of control, the T/C (dose: 0.5 mg/kg/injection, schedule: Q01DX009 (ip), vehicle: saline + alcohol) was 115 % of control (2×) and 124 % of control and the T/C (dose: 8.0 mg/kg/injection, schedule: Q01DX009 (ip), vehicle: saline + alcohol) was 162 % of control.

In the case of `N#CC1(Nc2ccccc2)CCCCC1`, the T/C (dose: 6.25 mg/kg/injection, schedule: Q01DX009 (ip), vehicle: saline with Tween-80) was 90 % of control, the T/C [11] was 95 % of control and the T/C [12] was 90 % of control.

For `CC(=O)NNC(=O)CCCCCCC(=O)NNC(C)=O`, the T/C [8] was 98 % of control and the T/C [9] was 98 % of control.

With `CCOC(=O)/C=C(\C)NCCSSCCN/C(C)=C/C(=O)OCC` the T/C (dose: 50.0 mg/kg/injection, schedule: Q01DX009 (ip), vehicle: Klucel (hydroxypropylcellulose) (HPC)) was 100 % of control, the T/C (dose: 100.0 mg/kg/injection, schedule: Q01DX009 (ip), vehicle: Klucel (hydroxypropylcellulose) (HPC)) was 97 % of control and the T/C (dose: 200.0 mg/kg/injection, schedule: Q01DX009 (ip), vehicle: Klucel (hydroxypropylcellulose) (HPC)) was 90 % of control.

`NCCC(=O)CN` was tested, and the T/C [17] was 104 % of control, the T/C [18] was 109 % of control and the T/C [19] was 104 % of control.

With `Cc1c2ccncc2c(CNCCO)c2c3ccccc3n(C)c12` the T/C (dose: 5.0 mg/kg/injection, schedule: Q01DX005 (ip), vehicle: saline) was 110 % of control, the T/C (dose: 10.0 mg/kg/injection, schedule: Q01DX005 (ip), vehicle: saline) was 108 % of control and the T/C (dose: 20.0 mg/kg/injection, schedule: Q01DX005 (ip), vehicle: saline) was 110 % of control.

With `CCC(=O)[O][Sn]([CH3])([CH3])[O][Sn]([CH3])([CH3])[O]C(=O)CC` the T/C (dose: 6.25 mg/kg/injection, schedule: Q01DX005 (ip), vehicle: saline) was 117 % of control, the T/C (dose: 12.5 mg/kg/injection, schedule: Q01DX005 (ip), vehicle: saline) was 117 % of control and 118 % of control and the T/C (dose: 25.0 mg/kg/injection, schedule: Q01DX005 (ip), vehicle: saline) was 120 % of control.

For `C/C(=N/NC(N)=O)c1cccc(/C(C)=N/NC(N)=O)n1.[Cl][Zn][Cl]`, the T/C (dose: 6.25 mg/kg/injection, schedule: Q01DX009 (ip), vehicle: saline) was 103 % of control, the T/C (dose: 12.5 mg/kg/injection, schedule: Q01DX009 (ip), vehicle: saline) was 102 % of control and the T/C (dose: 25.0 mg/kg/injection, schedule: Q01DX009 (ip), vehicle: saline) was 105 % of control.

With `Clc1cccc(Cl)c1C(Nc1nccs1)Nc1nccs1` the T/C [8] was 100 % of control, the T/C [9] was 103 % of control and the T/C [10] was 114 % of control.

For `c1ccc2c(CCN3CCCCC3)c[nH]c2c1`, the T/C [14] was 92 % of control, the T/C [15] was 88 % of control and the T/C [3] was 101 % of control and 87 % of control.

`[Fe]=[Se]` was tested, and the T/C [3] was 96 % of control, the T/C [4] was 86 % of control and the T/C [5] was 107 % of control.

`O=C(COc1ccc(Cl)cc1Cl)Nc1ccc(S(=O)(=O)O)cc1` was tested, and the T/C (dose: 60.0 mg/kg/injection, schedule: Q01DX005 (ip), vehicle: Klucel (hydroxypropylcellulose) (HPC)) was 104 % of control, the T/C (dose: 120.0 mg/kg/injection, schedule: Q01DX005 (ip), vehicle: Klucel (hydroxypropylcellulose) (HPC)) was 104 % of control and the T/C (dose: 240.0 mg/kg/injection, schedule: Q01DX005 (ip), vehicle: Klucel (hydroxypropylcellulose) (HPC)) was 98 % of control.
